Laboratory results from paper PMC10480161, “Identification of potent and selective N-myristoyltransferase inhibitors of Plasmodium vivax liver stage hypnozoites and schizonts” (Nature Communications, 2023).
Values joined by “and” are separate entries in the source; they are usually repeats but may differ in a detail not shown here. Equal entries are not always repeated.

What was measured:
HepG2 cells = assay: HepG2 cytotoxicity assay (Live/Dead staining); conditions: replicates
How it was run: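 Live/dead fluorescence microscopy (calcein-AM and ethidium homodimer, 1 µM each) read at 72 h post-treatment. Compounds dosed at 1 to 20 µM on HepG2 cells, with washing and fresh compound every 24 h.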

P. falciparum NF54 = assay: P. falciparum blood stage assay (SYBR Green); format: cell-based, Plasmodium falciparum; conditions: 72 h; for P. falciparum blood-stage development (parasite DNA level fluorescence): untreated = 129; for IC50: Plasmodium falciparum, NF54, ring-stage parasites, relative IC50
Method: To assess whether any of the PvNMTis developed here could qualify as TCP-1 candidates, we assessed the effect of each compound on blood-stage P. falciparum parasites, as there is currently no well-established in vitro platform for screening P. vivax blood-stage parasites. Synchronized P. falciparum NF54 ring-stage parasites were treated for 72 h with each compound at various concentrations, ranging from 0.625 µM to 10 µM, and parasite DNA replication was measured using a fluorescent DNA binding dye (SYBR Green).
Sorbitol-synchronized P. falciparum NF54 ring-stage parasites were cultured at a parasitemia of 0.5% and hematocrit of 1.5% in a 96-well microtiter plate. Parasites were treated with each NMT inhibitor compound at 0.625, 1.25, 2.5, 5, or 10 µM for 72 h. Direct lysis of the blood cells to release the parasite DNA was performed by adding 100 μl of LBS buffer containing SYBR green I DNA binding dye to each well. […] ICEstimator regression analysis (http://www.antimalarial-icestimator.net/) was used to obtain relative IC50 values for each compound.

[1] = test system: primary human hepatocytes; assay: Nuclear counts (DAPI) in P. vivax-infected primary hepatocytes as measure of toxicity; format: cell-based; conditions: two technical replicates
Method: Accordingly, we applied dose–response curves of all the tested NMTs on parasite isolates 2 and 3 over concentrations up to 20 µM (Fig. 5c, d, Source Data file). […] Nuclei were counted in each well using DAPI staining as a measure of toxicity (Supplementary Fig. 86, Supplementary Source data). We used the phosphatidylinositol 4-kinase inhibitor (PI4Ki), MMV390048, as a positive control for eliminating schizonts[37],[38].
Plasmodium vivax liver stage assays were performed as described previously. Cryopreserved primary human hepatocytes (Cat No. F00995-P) and hepatocyte culture medium (HCM) (InVitroGroTM CP Medium) were obtained from Bioreclamation IVT, Inc., (Baltimore, MD, USA). Briefly, we seeded 384-well plates with primary hepatocytes from a single donor lot at a density of 25,000 cells per well. We then infected the hepatocytes with 14,000 freshly hand-dissected sporozoites per well. Cells were exposed to the compounds at indicated concentrations from day 5 post-infection. We used Pi4K inhibitor MMV390048, at 20 µM, as a positive control to eliminate P. vivax liver schizonts. We then proceeded to feed cultures every day, replacing the compounds until day 8 post-infection. Cells were fixed with 4% PFA, permeabilized with 1% Triton X-100, blocked with 2% BSA, and stained with DAPI and PvUIS4 antibodies to detect schizonts and hypnozoites forms by confocal microscopy. […] DAPI was diluted 1:2000. The images were processed, analyzed and outlier cells were removed using IMARIS (Bitplane Inc.) image analysis software.
Supplementary Fig. 86. […] Nuclear […]
counts, normalized to DMSO controls, for NMT inhibitors across a dose response. Counts were ob-tained using DAPI staining from the P. vivax-infected wells quantified in Fig. 5d. Error bars represent the standard deviation of two technical replicates.
(1 picture or pasted object on this page, not shown here)

HsNMT1 = target: T1, HsNMT1 (Homo sapiens, UniProt P30419); assay: NMT activity assay (CPM detection of free CoA), HsNMT
T1 sequence (P30419 1-496): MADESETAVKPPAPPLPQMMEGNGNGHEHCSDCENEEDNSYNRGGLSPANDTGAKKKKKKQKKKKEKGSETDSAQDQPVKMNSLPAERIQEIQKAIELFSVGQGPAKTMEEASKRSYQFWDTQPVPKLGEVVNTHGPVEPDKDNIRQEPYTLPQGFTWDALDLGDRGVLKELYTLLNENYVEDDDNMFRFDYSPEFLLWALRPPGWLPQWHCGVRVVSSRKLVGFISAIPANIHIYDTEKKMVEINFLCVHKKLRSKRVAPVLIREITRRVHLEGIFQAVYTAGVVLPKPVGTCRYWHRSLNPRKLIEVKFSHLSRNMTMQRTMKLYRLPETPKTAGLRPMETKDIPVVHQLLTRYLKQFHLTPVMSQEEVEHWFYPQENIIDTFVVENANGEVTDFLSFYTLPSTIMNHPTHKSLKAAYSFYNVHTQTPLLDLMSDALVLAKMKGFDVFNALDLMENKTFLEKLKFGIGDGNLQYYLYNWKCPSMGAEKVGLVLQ

Structure (SMILES) | Percentage of live HepG2 cells compared with diluent controls (HepG2 cells; 1 μM) | Percentage of live HepG2 cells compared with diluent controls (HepG2 cells; 2.5 μM) | Percentage of live HepG2 cells compared with diluent controls (HepG2 cells; 5 μM) | Percentage of live HepG2 cells compared with diluent controls (HepG2 cells; 10 μM) | Percentage of live HepG2 cells compared with diluent controls (HepG2 cells; 20 μM) | P. falciparum blood-stage development (parasite DNA level fluorescence) (P. falciparum NF54; 0.625 uM) | P. falciparum blood-stage development (parasite DNA level fluorescence) (P. falciparum NF54; 1.25 uM) | P. falciparum blood-stage development (parasite DNA level fluorescence) (P. falciparum NF54; 2.5 uM) | P. falciparum blood-stage development (parasite DNA level fluorescence) (P. falciparum NF54; 5 uM) | P. falciparum blood-stage development (parasite DNA level fluorescence) (P. falciparum NF54; 10 uM) | IC50 (P. falciparum NF54) [µM] | Nucleus counts per well ([1]; 1 uM) | Nucleus counts per well ([1]; 2.5uM) | Nucleus counts per well ([1]; 5 uM) | Nucleus counts per well ([1]; 10uM) | Nucleus counts per well ([1]; 20uM, P. vivax-infected wells) | IC50 (HsNMT1) [µM]
Cc1nn(C)c(C)c1CCOc1ccccc1-c1cccc(OCCN(C)C)c1 [Compound 26b] | 97.4196% and 92.7163% | 92.7942% and 91.1312% | 90.5335% and 86.8176% | 83.2575% and 84.0111% | 77.3069% and 77.3588% | 123.3 | 124.2 | 115.6 | 103.2 | 94.32 | 0.71 | 14910 per well and 16840 per well | 13670 per well and 14610 per well | 13920 per well and 13020 per well | 12600 per well and 13580 per well | 11600 per well and 12490 per well | 9.85
Cc1nn(C)c(C)c1CCOc1cc(F)ccc1-c1cccc(OCCN(C)C)c1 [Compound 26c] | 106.359% and 107.918% | 107.866% and 101.058% | 101.681% and 95.3408% | 87.7011% and 97.3677% | 83.4394% and 83.5174% | 127.1 | 126.9 | 117.8 | 108.1 | 97.66 | 0.82 | 16190 per well and 15050 per well | 15160 per well and 15950 per well | 16180 per well and 14300 per well | 14610 per well and 15250 per well | 12520 per well and 13160 per well | 4.79
Cc1n[nH]c(C)c1CCOc1cc(F)ccc1-c1cccc(OCCN(C)C)c1 [Compound 26i] | 96.6401% and 97.1078% | 90.0917% | 95.2109% and 86.8435% | 86.5317% and 90.6634% | 79.0479% and 88.1213% | 109.6 | 112.9 | 111.2 | 93.25 | 85.5 | 0.4 | 15030 per well and 14960 per well | 13600 per well and 14280 per well | 12980 per well and 13510 per well | 14570 per well and 13510 per well | 12860 per well and 13500 per well | 13.9
